Assays:
[1] = tested on: LvM3b cells; assay: Liver metastasis in mice injected with LvM3b cells with or without CKB knockdown, pre-treated with metabolite; assay type: in vivo; details: for rescue of metastasis suppression upon CKB knockdown: LvM3b cells with CKB knockdown, pre-treated 10 uM, day 21
Description: CKB is known to regulate the reservoir of rapidly mobilized high-energy phosphates in tissues such as the brain and kidneys by catalyzing the transfer of a high-energy phosphate group from phosphocreatine to ADP, yielding ATP and creatine. It was hypothesized that CKB generation of ATP from phosphocreatine might provide colon cancer cells with an energetic advantage during hepatic colonization. To determine if ATP, the end-product of CKB catalysis, could rescue metastasis suppression seen upon CKB knockdown, CKB knockdown cells were loaded with ATP prior to injection of cells in experimental metastasis assays. Briefly, liver metastasis was examined in mice injected with 5×10^5 LvM3b with or without CKB knockdown and pre-treated with 100 uM ATP or vehicle. Metastatic burden was monitored by bioluminescent imaging and mice euthanized 21 days after injection.
Similar studies were done to determine whether creatine and phosphocreatine could rescue the phenotype of seen upon CKB knock-down. More specifically, assays were performed to examine liver metastasis in mice injected with 5×10^5 LvM3b cells pre-treated with 10 uM creatine, in the background of CKB knockdown. The mice were then euthanized as described above and liver extracted for ex vivo bioluminescent imaging at day 21 after injection. Also, colorectal cancer metastasis was examined in mice injected with 5×10^5 LvM3b cells with CKB knockdown and pre-treated with 10 uM creatine-phosphate. Liver metastasis was monitored by bioluminescent imaging and mice were euthanized as described above.

[2] = tested on: Ls-LvM3b colon cancer cells; assay: Cell viability of Ls-LvM3b cells, WST-1 reagent, 5'-Fluorouracil with or without B-GPA; assay type: cell-based, human; details: 10 mM B-GPA, 48 hours
Protocol: To that end, 10,000 Ls-LvM3b cells were seeded in triplicate in 96-well plates and treated with various concentrations of 5′-Fluorouracil with or without 10 mM of B-GPA for 48 hours. Cell viability was assayed in the same manner described above with absorbance at 440 nm an indicator of the number of viable cells.

[3] = tested on: PANC1 pancreatic cancer cells; assay: Survival of PANC1 cells pre-treated with B-GPA in immunodeficient mice, bioluminescence imaging; assay type: in vivo; details: PANC1 cells pre-treated 10 mM 48 hours
Protocol: Briefly, PANC1 pancreatic cancer cells were incubated for 48 hours with and without the presence of 10 mM of B-GPA, then injected into immunodeficient mice (5×10^5 PANC1 cells each mouse; 4 mice each in the treated and untreated cohort). The mice were imaged with bioluminescence imaging on day 1 after injection and signal was normalized to day zero. […] More specifically, the average photon flux ratios as measure by the bioluminescence imaging for the control group (without treatment of B-GPA) and the treated groups were about 2.7 and 1.6, respectively.

[4] = tested on: PANC1 pancreatic cancer cells; assay: Cell viability of PANC1 cells, WST-1 reagent, Gemcitabine with or without B-GPA; assay type: cell-based, human; details: 10 mM B-GPA, 48 hours, Gemcitabine 1 nm-1000000 nm
Protocol: Briefly, 10000 PANC1 cells were seeded in triplicate in 96-well plates and treated with various concentrations of Gemcitabine (1 nm, 10 nm, 100 nm, 1000 nm, 10000 nm, 100000 nm, and 1000000 nm) with or without 10 mM of B-GPA for 48 hours. Cell viability was then assayed using the WST-1 reagent (Roche Applied Science), with absorbance at 440 nm an indicator of the number of viable cells.

[5] = tested on: LvM3b cells; assay: Liver metastasis in mice injected with LvM3b cells, treated by daily intra-peritoneal injection, bioluminescent imaging; assay type: in vivo
Protocol: Mice were treated with 10 mg of cyclocreatine or saline vehicle, administered through intra-peritoneal injection. The treatment regime started one day after inoculation of tumor cells and continued until the mice were euthanized. Beta-guanidipropionic acid was administered at a dose of 200 ul of 0.5M solution through intra-peritoneal injection. Treatment regime were as that for cyclocreatine treatment.
Finally, assays were carried out to determine the impact of small-molecule inhibition of CKB and restriction of creatine availability on colon cancer metastasis. Cyclocreatine, which resembles phosphocreatine, is a transition-state analog for creatine kinases. To examine the effect of cyclocreatine, bioluminescent measurements of liver metastasis were carried out in mice injected with 5×10^5 LvM3b cells and treated with cyclocreatine daily for two weeks. The mice were then euthanized and livers excised for ex vivo imaging at the end of the treatment.
Similar assays were carried out using a creatine transporter inhibitor beta-guanidinopropionic acid (B-GPA). Bioluminescent measurements were used to examine liver metastasis in mice injected with 5×10^5 LvM3b cells and treated with B-GPA daily for two weeks.
In this example, assays were carried out to confirm the therapeutic potential of targeting the creatine transporter channel SLC6a8 by administering the small molecule B-GPA, which is an inhibitor of SLC6a8. […] To confirm this therapeutic effect, mice injected with LvM3b colon cancer cells we treated with either B-GPA or control vehicle (PBS) via intra-peritoneal injection daily for three weeks (FIG. 2). The mice were euthanized at three weeks and liver extracted for bioluminescent imaging and gross histology.
More specifically, the average photon flux ratios as measure by the bioluminescence imaging for the control group (without treatment of B-GPA) and the treated groups were about 800 and 100, respectively.

[6] = biological target: T1, SLC6a8 (Homo sapiens, UniProt P48029); assay: Liver metastasis by SW480 cells expressing shRNA targeting SLC6a8; assay type: in vivo, mice; details: 5×10^5 SW480 cells; 28 days
T1 sequence (P48029 1-635): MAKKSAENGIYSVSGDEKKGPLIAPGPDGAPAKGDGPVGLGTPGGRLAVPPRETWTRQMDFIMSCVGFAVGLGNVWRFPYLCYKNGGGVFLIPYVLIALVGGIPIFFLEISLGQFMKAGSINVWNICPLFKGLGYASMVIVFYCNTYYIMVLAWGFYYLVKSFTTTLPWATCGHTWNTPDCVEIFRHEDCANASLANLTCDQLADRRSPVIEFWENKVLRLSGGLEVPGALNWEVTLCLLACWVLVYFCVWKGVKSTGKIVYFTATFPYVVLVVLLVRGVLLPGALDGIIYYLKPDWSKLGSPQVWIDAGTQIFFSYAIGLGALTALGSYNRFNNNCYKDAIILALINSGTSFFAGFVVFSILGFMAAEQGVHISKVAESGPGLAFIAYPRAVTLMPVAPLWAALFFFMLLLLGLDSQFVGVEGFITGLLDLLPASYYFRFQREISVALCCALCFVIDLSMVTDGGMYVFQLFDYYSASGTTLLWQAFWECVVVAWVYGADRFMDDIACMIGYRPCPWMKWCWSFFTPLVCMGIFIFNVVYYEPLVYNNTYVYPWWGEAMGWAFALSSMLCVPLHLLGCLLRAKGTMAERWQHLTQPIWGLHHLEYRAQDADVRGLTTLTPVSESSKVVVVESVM
Protocol: (§1) pLKO vectors expressing shRNA hairpins targeting CKB and SLC6a8 were ordered from Sigma-Aldrich. Two independent hairpins that gave the best knockdown of transcript levels were used for all experiments. These hairpin DNA and RNA sequences are listed below:
To further confirm the therapeutic benefit of knockdown of SLC6a8, another independent colon cancer cell line (SW480 colon cancer cell line) expressing a short hairpin RNA targeting SLC6a8 (shSLC6a8 #2) was injected into mice (FIG. 3b).

[7] = biological target: T1, SLC6a8; assay: Liver metastasis by LvM3b cells expressing shRNA targeting SLC6a8; assay type: in vivo, mice; design: endogenous in cells; host or cells: LvM3b colon cancer cells (derivative of LS-174T) injected into mice; details: three weeks after inoculation
Protocol: as §1
Briefly, mice were injected with LvM3b colon cancer cells expressing either of two independent short hairpin RNAs (shSLC6a8 #4 or shSLC6a8 #5) targeting the creatine transporter channel SLC6a8 or with control RNA (empty pLKO vector, ordered from Sigma Aldrich) (FIG. 3a). Again, liver metastasis was monitored by bioluminescent imaging and mice were euthanized three weeks after inoculation of cancer cells. Livers were extracted for gross histology.

[8] = biological target: T1, SLC6a8; assay: Liver metastasis by PANC1 cells expressing shRNA targeting SLC6a8; assay type: in vivo, mice; details: at 28 days
Description: as §1
Lastly, the therapeutic benefit of targeting SLC6a8 was investigated in pancreatic cancer cells. To accomplish this, PANC1 pancreatic cancer cells expressing either an shRNA targeting SLC6a8 (shSLC6a8 #5) or a control RNA (empty pLKO vector) were injected into mice. Metastatic progression was monitored by bioluminescent imaging and mice were euthanized in the same manner described above.

[9] = 5×10^5 LvM3b cells, treated daily for two weeks

Nc1ncnc2c1ncn2[C@@H]1O[C@H](COP(=O)(O)OP(=O)(O)OP(=O)(O)O)[C@@H](O)[C@H]1O [ATP]
enhancement of suppressed metastasis phenotype ([1]; LvM3b cells depleted of CKB, pre-treated 100 uM, 21 days): more than 10 folds
metastatic activity of cells expressing a short-hairpin control ([1]; LvM3b control hairpin cells, pre-treated 100 uM): did not enhance the metastatic activity

N=C(N)NCCC(=O)O [B-GPA, beta-guanidinopropionic acid]
effect on cytotoxic activity of 5'-Fluorouracil [2]: enhanced the cytotoxic activity
average photon flux ratio (bioluminescence imaging) ([3]; day 1 normalized to day zero, control group about 2.7): ~1.6
tumor burden of pancreatic cancer cells in vivo ([3]; one day after injection, P<0.05): significant reduction
effect on cytotoxic activity of Gemcitabine [4]: enhanced the cytotoxic activity
metastatic colonization (liver metastasis, bioluminescence) [5, 9]: significantly reduced metastatic colonization
average photon flux ratio (bioluminescence imaging) ([5]; LvM3b cells, daily for three weeks, control group about 800): ~100
colon cancer metastasis to the liver ([5]; LvM3b cells, intra-peritoneal injection daily for three weeks, P<0.05): significant reduction

CN(CC(=O)O)C(=N)N [creatine]
rescue of metastasis suppression upon CKB knockdown [1]: rescued metastasis suppression

NC1=NCCN1CC(=O)O [cyclocreatine]
comparison with standard-of-care FOLFOX chemotherapy [5, 9]: superior to the current standard-of-care FOLFOX chemotherapy
metastatic colonization (liver metastasis, bioluminescence) [5, 9]: significantly reduced metastatic colonization

creatine-phosphate
rescue of metastasis suppression upon CKB knockdown [1]: rescued metastasis suppression

shSLC6a8 #2: short hairpin RNA targeting SLC6a8, SEQ ID NO 19 (DNA) / 20 (RNA) (CCGGGCUGGUCUACAACAACACCUACUCGAGUAGGUGUUGUUGUAGACCAGCUUUUUG; listed as RNA, chemistry not fully specified)
metastasis of SW480 colon cancer cells [6]: significantly inhibited metastasis

shSLC6a8 #4: short hairpin RNA targeting SLC6a8, SEQ ID NO 13 (DNA) / 17 (RNA) (CCGGCUUAUUCCCUACGUCCUGAUCCUCGAGGAUCAGGACGUAGGGAAUAAGUUUUUG; listed as RNA, chemistry not fully specified)
colon cancer metastasis (liver) [7]: inhibition of colon cancer metastasis

shSLC6a8 #5: short hairpin RNA targeting SLC6a8, SEQ ID NO 14 (DNA) / 18 (RNA) (CCGGAUUACCUGGUCAAGUCCUUUACUCGAGUAAAGGACUUGACCAGGUAAUUUUUUG; listed as RNA, chemistry not fully specified)
pancreatic cancer metastasis [8]: significant reduction in pancreatic cancer metastasis
colon cancer metastasis (liver) [7]: inhibition of colon cancer metastasis

Reference: US10406128B2, “Treatment and diagnosis of colon cancer” (The Rockefeller University, priority 2012, dated 2019)
